Laboratory results as given in ChEMBL document CHEMBL4024735, “Brefeldin A enhances docetaxel-induced growth inhibition and apoptosis in prostate cancer cells in monolayer and 3D cultures” (Bioorg Med Chem Lett, 2017).
Active and inactive are the calls of the source. The calls are words filed in the database; no cut-off is given here.

Tests used:
[1] = target: RAC-alpha serine/threonine-protein kinase (Homo sapiens) (UniProt P31749); assay: Inhibition of Akt phosphorylation in human PC3 cells at 50 nM after 24 hrs by Western blot method relative to control; assay type: cell-based
[2] = system: PC-3; assay: Induction of apoptosis in human PC3 cells assessed as Bcl2 level at 50 nM after 24 hrs by Western blot method relative to control; assay type: functional
[3] = system: PC-3; assay: Cytotoxicity against 3D culture of human PC3 cells assessed as size of tissue like structure at 50 nM administered once every alternative day for 10 days measured on post last dose by matrigel based microscopic method relative to control; assay type: functional
[4] = system: LNCaP; assay: Cytotoxicity against human LNCAP cells assessed as decrease in cell viability after 72 hrs by trypan blue exclusion assay; assay type: functional, cell-based
[5] = system: PC-3; assay: Cytotoxicity against human PC3 cells assessed as decrease in cell viability after 72 hrs by trypan blue exclusion assay; assay type: functional, cell-based
[6] = system: LNCaP; assay: Induction of apoptosis in human LNCAP cells assessed as morphological changes by propidium iodide staining based fluorescence microscopy; assay type: functional, cell-based
[7] = system: PC-3; assay: Induction of apoptosis in human PC3 cells assessed as morphological changes by propidium iodide staining based fluorescence microscopy; assay type: functional, cell-based
[8] = Drug uptake in CD2F1 mouse plasma at 26.3 mg/kg administered for 1 min via intravenous injection measured 60 mins post dose; assay type: ADME, organism-based
[9] = system: RWPE-1; assay: Cytotoxicity against human RWPE1 cells at >=100 nM after 72 hrs by tryphan blue exclusion assay; assay type: cell-based; settings: rwpe-1, 72 h
[10] = system: PC-3; assay: Potentiation of 3 nM docetaxel-induced cytotoxicity against human PC3 cells assessed as decrease in cell viability at 50 nM after 72 hrs by trypan blue exclusion assay; assay type: functional, cell-based
[11] = system: RWPE-1; assay: Potentiation of 2 nM docetaxel-induced cytotoxicity against human RWPE1 cells assessed as decrease in cell viability at 50 nM after 72 hrs by trypan blue exclusion assay; assay type: cell-based; settings: rwpe-1, 72 h, 0.05 µM
[12] = system: PC-3; assay: Induction of apoptosis in human PC3 cells at 50 nM after 72 hrs by propidium iodide staining based fluorescence microscopy (reference value: 1.9 +/- 0.8%); assay type: functional
[13] = system: PC-3; assay: Potentiation of 2 nM docetaxel-induced apoptosis in human PC3 cells at 50 nM after 72 hrs by propidium iodide staining based fluorescence microscopy (reference value: 1.9 +/- 0.8%); assay type: functional
[14] = system: PC-3; assay: Cytotoxicity against human PC3 cells assessed as cell viability at 50 nM after 72 hrs by trypan blue exclusion assay relative to control; assay type: functional; settings: PC-3, 72 h, read-out: Activity
[15] = system: PC-3; assay: Potentiation of 2 nM docetaxel-induced cytotoxicity against human PC3 cells assessed as cell viability at 50 nM after 72 hrs by trypan blue exclusion assay relative to control; assay type: functional
[16] = system: PC-3; assay: Potentiation of 2 nM docetaxel-induced cytotoxicity against 3D culture of human PC3 cells assessed as size of tissue like structure at 50 nM administered once every alternative day for 10 days measured on post last dose by matrigel based microscopic method relative to control; assay type: functional
[17] = target: Mitogen-activated protein kinase 3 (Homo sapiens) (UniProt P27361); assay: Inhibition of Erk1 phosphorylation in human PC3 cells at 50 nM after 24 hrs by Western blot method relative to control; assay type: cell-based
[18] = target: Mitogen-activated protein kinase 1 (Homo sapiens) (UniProt P28482); assay: Inhibition of Erk2 phosphorylation in human PC3 cells at 50 nM after 24 hrs by Western blot method relative to control; assay type: cell-based
[19] = target: Mitogen-activated protein kinase 1 (Homo sapiens) (UniProt P28482); assay: Potentiation of 2 nM docetaxel-induced inhibition of Erk2 phosphorylation in human PC3 cells at 50 nM after 24 hrs by Western blot method relative to control; assay type: cell-based
[20] = system: RWPE-1; assay: Potentiation of 3 nM docetaxel-induced cytotoxicity against human RWPE1 cells assessed as decrease in cell viability at 50 nM after 72 hrs by trypan blue exclusion assay; assay type: cell-based; settings: rwpe-1, 72 h, 0.05 µM
[21] = Selectivity ratio for potentiation of 2 nM docetaxel-induced cytotoxicity against human PC3 cells to potentiation of 2 nM docetaxel-induced cytotoxicity against human RWPE1 cells
[22] = system: PC-3; assay: Potentiation of 2 nM docetaxel-induced apoptosis in human PC3 cells assessed as Bcl2 level at 50 nM after 24 hrs by Western blot method relative to control; assay type: functional
[23] = target: RAC-alpha serine/threonine-protein kinase (Homo sapiens) (UniProt P31749); assay: Potentiation of 2 nM docetaxel-induced inhibition of Akt phosphorylation in human PC3 cells at 50 nM after 24 hrs by Western blot method relative to control; assay type: cell-based
[24] = target: Mitogen-activated protein kinase 3 (Homo sapiens) (UniProt P27361); assay: Potentiation of 2 nM docetaxel-induced inhibition of Erk1 phosphorylation in human PC3 cells at 50 nM after 24 hrs by Western blot method relative to control; assay type: cell-based
[25] = system: PC-3; assay: Cytotoxicity against 3D cultures of human PC3 cells assessed as size of tissue-like structure at 2 nM administered once every alternative day for 10 days measured on post last dose by matrigel based microscopic method relative to control; assay type: functional
[26] = Drug uptake in patient plasma at 20 mg/m2, iv administered for 1 hr as infusion measured 72 hrs post dose; assay type: ADME, organism-based; settings: human
[27] = system: Plasma; assay: Drug uptake in cancer patient plasma at 35 mg/m2, iv administered once every week via infusion measured on day 8 by HPLC-TMS; assay type: ADME, organism-based; settings: human, in vivo
[28] = system: RWPE-1; assay: Cytotoxicity against human RWPE1 cells at 5 to 10 nM after 72 hrs by trypan blue exclusion assay; assay type: cell-based; settings: rwpe-1, 72 h, 0.01 µM
[29] = system: PC-3; assay: Induction of apoptosis in human PC3 cells at 2 nM after 72 hrs by propidium iodide staining based fluorescence microscopy (reference value: 1.9 +/- 0.8%); assay type: functional
[30] = system: PC-3; assay: Cytotoxicity against human PC3 cells assessed as cell viability at 2 nM after 72 hrs by trypan blue exclusion assay relative to control; assay type: functional; settings: PC-3, 72 h, read-out: Activity
[31] = system: PC-3; assay: Cytotoxicity against human PC3 cells; assay type: functional, cell-based
[32] = target: RAC-alpha serine/threonine-protein kinase (Homo sapiens) (UniProt P31749); assay: Inhibition of Akt phosphorylation in human PC3 cells at 2 nM after 24 hrs by Western blot method relative to control; assay type: cell-based
[33] = target: Mitogen-activated protein kinase 3 (Homo sapiens) (UniProt P27361); assay: Inhibition of Erk1 phosphorylation in human PC3 cells at 2 nM after 24 hrs by Western blot method relative to control; assay type: cell-based
[34] = target: Mitogen-activated protein kinase 1 (Homo sapiens) (UniProt P28482); assay: Inhibition of Erk2 phosphorylation in human PC3 cells at 2 nM after 24 hrs by Western blot method relative to control; assay type: cell-based
[35] = system: PC-3; assay: Induction of apoptosis in human PC3 cells assessed as Bcl2 level at 2 nM after 24 hrs by Western blot method relative to control; assay type: functional

Chain of Mitogen-activated protein kinase 3 (Homo sapiens) (P27361 whole entry): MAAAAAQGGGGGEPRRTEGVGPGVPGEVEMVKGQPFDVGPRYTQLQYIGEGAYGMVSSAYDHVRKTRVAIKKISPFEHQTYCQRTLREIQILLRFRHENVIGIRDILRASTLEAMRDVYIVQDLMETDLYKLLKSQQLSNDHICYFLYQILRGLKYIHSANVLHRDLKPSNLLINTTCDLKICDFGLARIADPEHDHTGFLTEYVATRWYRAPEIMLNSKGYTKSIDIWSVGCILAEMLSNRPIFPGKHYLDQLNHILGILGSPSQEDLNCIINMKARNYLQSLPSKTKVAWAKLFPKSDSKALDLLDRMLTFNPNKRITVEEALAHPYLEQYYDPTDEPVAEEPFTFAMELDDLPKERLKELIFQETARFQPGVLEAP
Chain of Mitogen-activated protein kinase 1 (Homo sapiens) (P28482 whole entry): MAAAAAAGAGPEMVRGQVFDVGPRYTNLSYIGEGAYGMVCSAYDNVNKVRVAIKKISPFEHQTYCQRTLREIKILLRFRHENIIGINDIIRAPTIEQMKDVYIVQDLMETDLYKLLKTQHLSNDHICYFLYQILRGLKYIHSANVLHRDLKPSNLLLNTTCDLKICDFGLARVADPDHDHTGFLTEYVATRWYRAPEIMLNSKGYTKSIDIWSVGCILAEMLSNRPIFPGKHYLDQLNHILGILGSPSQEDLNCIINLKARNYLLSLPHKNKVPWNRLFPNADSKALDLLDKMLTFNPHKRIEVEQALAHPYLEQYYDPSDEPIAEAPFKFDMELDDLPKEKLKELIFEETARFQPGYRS
Chain of RAC-alpha serine/threonine-protein kinase (Homo sapiens) (P31749 whole entry): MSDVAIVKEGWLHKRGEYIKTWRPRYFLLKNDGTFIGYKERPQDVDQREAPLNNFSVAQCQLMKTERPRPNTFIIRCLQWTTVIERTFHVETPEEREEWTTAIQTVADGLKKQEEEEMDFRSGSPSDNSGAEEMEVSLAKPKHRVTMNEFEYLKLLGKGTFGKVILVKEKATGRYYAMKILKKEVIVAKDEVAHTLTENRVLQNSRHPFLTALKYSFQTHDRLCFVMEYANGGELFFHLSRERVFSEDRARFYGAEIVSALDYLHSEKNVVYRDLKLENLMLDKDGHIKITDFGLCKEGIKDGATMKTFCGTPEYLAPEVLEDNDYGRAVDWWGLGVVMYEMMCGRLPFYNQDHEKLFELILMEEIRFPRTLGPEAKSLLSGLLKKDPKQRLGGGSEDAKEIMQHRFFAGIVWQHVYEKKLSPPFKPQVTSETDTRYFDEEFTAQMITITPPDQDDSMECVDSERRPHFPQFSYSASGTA

For `C[C@H]1CCC/C=C/[C@@H]2C[C@H](O)C[C@H]2[C@H](O)/C=C/C(=O)O1` [BREFELDIN A], the fold change (FC) [1] was 0.99, the “fold change (FC)” value [2] was 0.99 and the Activity [3] was 79.3%. For the same molecule, the Activity [4] was “Dose-dependent effect”, the Activity [5] was “Dose-dependent effect” and the Activity [6] was “Dose-dependent effect”. For the same molecule, the Activity [7] was “Dose-dependent effect”, the concentration at 1 h [8] was 700 nM and the Activity [9] was “Toxic”. The Activity [10] was “Active”, the Activity [11] was “Toxic” and the Activity [12] was 18%. The Activity [13] was 51.2%, the viability at 0.05 µM [14] was 83.4% and the Activity [15] was 48.4%. For the same molecule, the Activity [16] was 38.8%, the fold change (FC) [17] was 0.99 and the fold change (FC) [18] was 0.97. For the same molecule, the fold change (FC) [19] was 0.96, the Activity [20] was “Toxic” and the Selectivity ratio [21] was 4. For the same molecule, the “fold change (FC)” value [22] was 0.32, the fold change (FC) [23] was 0.97 and the fold change (FC) [24] was 0.93.
For `CC(=O)O[C@@]12CO[C@@H]1C[C@H](O)[C@@]1(C)C(=O)[C@H](O)C3=C(C)[C@@H](OC(=O)[C@H](O)[C@@H](NC(=O)OC(C)(C)C)c4ccccc4)C[C@@](O)([C@@H](OC(=O)c4ccccc4)[C@H]21)C3(C)C` [DOCETAXEL ANHYDROUS], the Activity [25] was 83.1%, the Activity [4] was “Dose-dependent effect” and the Activity [5] was “Dose-dependent effect”. The IC50 ([5]; PC-3, 72 h) was 8 nM, the concentration at 72 h [26] was 2.8 nM and the concentration [27] was 1.79 nM. The Activity [6] was “Dose-dependent effect”, the Activity [7] was “Dose-dependent effect” and the Activity [28] was “Toxic”. The Activity [10] was “Active”, the Activity [11] was “Toxic” and the Activity [29] was 14.5%. The viability at 0.002 µM [30] was 86.7%, the IC50 [31] was 5 to 24 nM and the fold change (FC) [32] was 1.01. The fold change (FC) [33] was 0.95, the fold change (FC) [34] was 0.96 and the “fold change (FC)” value [35] was 0.71.
